Measured values as given in ChEMBL document CHEMBL5046316, “Structure-Based Optimization of a Fragment-like TLR8 Binding Screening Hit to an In Vivo Efficacious TLR7/8 Antagonist” (ACS Med Chem Lett, 2022).

Assays:
[1] = Dissociation constant, pKa of the compound by UV spectrometric titration method; format: physicochemical
Toll-like receptor 7 = target: T1, Toll-like receptor 7 (Homo sapiens, UniProt Q9NYK1); assay: Antagonist activity at human TLR7 expressed in human PBMC cells assessed as inhibition of ssRNA stimulated IFNalpha level preincubated for 30 mins followed by stimulation and measured after 20 hrs by AlphaLISA method; format: cell-based
T1 sequence (Q9NYK1 whole entry): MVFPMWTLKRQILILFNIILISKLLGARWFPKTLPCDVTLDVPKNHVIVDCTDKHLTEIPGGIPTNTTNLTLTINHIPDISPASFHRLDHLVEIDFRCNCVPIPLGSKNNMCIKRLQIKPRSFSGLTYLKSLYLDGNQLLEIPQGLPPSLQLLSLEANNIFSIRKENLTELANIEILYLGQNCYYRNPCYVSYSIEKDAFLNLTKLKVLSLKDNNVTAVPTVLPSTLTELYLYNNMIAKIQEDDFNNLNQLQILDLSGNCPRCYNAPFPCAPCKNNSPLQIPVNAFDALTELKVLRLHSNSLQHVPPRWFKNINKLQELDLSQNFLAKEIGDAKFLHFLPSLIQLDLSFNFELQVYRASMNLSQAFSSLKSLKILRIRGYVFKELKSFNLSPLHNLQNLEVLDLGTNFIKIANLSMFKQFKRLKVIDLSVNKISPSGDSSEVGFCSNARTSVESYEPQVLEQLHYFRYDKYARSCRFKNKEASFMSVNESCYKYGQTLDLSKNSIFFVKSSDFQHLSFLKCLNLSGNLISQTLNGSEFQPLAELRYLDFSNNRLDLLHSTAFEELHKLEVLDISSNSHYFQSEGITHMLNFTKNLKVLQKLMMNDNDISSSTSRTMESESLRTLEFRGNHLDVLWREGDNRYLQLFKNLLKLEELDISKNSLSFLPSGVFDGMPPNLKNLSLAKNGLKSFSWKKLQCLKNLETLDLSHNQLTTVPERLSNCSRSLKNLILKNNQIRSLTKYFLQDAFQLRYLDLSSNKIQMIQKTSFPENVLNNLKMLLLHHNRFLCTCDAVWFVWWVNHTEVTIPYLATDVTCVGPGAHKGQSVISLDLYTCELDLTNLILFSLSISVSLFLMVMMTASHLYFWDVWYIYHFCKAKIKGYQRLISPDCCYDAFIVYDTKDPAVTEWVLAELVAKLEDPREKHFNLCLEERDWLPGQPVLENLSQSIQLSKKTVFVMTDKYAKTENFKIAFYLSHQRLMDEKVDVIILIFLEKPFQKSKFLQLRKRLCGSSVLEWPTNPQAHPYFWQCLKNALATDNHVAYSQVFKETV

Toll-like receptor 4 = Toll-like receptor 4 (Homo sapiens, UniProt O00206); assay: Antagonist activity at human TLR4 expressed in human PBMC cells assessed as inhibition of LPS stimulated TNF level preincubated for 30 mins followed by stimulation and measured after 20 hrs by multiplate reader assay; format: cell-based
Sequence of Toll-like receptor 4 (O00206 whole entry): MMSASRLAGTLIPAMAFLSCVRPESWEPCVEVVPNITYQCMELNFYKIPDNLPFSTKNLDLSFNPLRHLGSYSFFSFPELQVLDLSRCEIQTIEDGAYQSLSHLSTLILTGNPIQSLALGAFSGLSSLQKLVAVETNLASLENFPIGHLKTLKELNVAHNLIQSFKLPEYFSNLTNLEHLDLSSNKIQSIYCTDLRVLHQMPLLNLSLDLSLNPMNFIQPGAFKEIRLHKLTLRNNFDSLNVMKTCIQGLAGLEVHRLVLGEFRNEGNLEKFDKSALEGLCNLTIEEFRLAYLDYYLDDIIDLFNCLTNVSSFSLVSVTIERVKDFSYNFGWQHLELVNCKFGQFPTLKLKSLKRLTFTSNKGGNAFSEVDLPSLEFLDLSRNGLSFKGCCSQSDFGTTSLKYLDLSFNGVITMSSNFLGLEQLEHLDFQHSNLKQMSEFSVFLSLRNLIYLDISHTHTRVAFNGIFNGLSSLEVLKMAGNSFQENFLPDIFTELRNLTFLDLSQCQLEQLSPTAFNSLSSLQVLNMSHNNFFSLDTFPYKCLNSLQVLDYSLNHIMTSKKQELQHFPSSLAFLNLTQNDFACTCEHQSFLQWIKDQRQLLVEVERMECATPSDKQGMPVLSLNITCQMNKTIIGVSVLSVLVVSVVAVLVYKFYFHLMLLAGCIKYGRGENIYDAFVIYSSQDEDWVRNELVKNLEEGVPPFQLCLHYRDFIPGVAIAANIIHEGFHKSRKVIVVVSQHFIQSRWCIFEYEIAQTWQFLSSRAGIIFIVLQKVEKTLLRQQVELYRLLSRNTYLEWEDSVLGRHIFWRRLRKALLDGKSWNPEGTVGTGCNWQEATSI

[2] = Permeability of compound in dog MDCK cells; format: ADME, cell-based, Canis lupus familiaris; details: read-out: permeability
Toll-like receptor 8 [3] = target: T2, Toll-like receptor 8 (Homo sapiens, UniProt Q9NR97); assay: Antagonist activity at human TLR8 expressed in Drosophila S2 by TR-FRET assay
T2 sequence (Q9NR97 whole entry): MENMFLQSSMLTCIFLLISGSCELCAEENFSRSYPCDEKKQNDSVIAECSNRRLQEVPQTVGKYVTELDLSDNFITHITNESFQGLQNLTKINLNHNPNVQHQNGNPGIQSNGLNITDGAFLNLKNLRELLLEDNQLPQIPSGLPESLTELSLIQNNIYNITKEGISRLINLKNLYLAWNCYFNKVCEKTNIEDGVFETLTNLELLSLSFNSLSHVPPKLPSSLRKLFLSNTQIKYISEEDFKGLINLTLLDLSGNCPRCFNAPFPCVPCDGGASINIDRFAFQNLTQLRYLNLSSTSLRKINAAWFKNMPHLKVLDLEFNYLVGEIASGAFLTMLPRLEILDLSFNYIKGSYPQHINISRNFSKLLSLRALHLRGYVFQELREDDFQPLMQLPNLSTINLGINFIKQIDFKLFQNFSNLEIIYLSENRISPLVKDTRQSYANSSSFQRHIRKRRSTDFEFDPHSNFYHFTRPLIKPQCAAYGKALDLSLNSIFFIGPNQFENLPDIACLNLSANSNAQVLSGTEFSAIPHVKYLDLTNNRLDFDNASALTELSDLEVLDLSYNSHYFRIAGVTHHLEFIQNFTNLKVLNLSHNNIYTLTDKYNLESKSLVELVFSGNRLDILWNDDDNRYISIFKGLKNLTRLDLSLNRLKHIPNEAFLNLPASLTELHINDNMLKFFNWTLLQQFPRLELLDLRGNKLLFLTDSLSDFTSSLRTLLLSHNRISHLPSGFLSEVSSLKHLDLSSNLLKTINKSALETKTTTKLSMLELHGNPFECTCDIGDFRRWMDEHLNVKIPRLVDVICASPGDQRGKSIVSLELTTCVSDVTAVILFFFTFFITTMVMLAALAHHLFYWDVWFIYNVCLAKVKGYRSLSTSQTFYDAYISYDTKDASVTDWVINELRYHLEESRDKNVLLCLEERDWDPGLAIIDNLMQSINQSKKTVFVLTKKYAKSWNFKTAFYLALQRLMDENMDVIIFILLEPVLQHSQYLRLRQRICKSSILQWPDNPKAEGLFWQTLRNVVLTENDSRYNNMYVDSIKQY

Toll-like receptor 8 [4] = target: T2, Toll-like receptor 8; assay: Antagonist activity at human TLR8 expressed in human PBMC cells assessed as inhibition of ssRNA stimulated TNF level preincubated for 30 mins followed by stimulation and measured after 20 hrs by multiplate reader assay; format: cell-based
Toll-like receptor 9 = target: T3, Toll-like receptor 9 (Homo sapiens, UniProt Q9NR96); assay: Antagonist activity at human TLR9 expressed in human PBMC cells assessed as inhibition of ODN2216 stimulated IFNalpha level preincubated for 30 mins followed by stimulation and measured after 20 hrs by AlphaLISA method; format: cell-based
T3 sequence (Q9NR96 whole entry): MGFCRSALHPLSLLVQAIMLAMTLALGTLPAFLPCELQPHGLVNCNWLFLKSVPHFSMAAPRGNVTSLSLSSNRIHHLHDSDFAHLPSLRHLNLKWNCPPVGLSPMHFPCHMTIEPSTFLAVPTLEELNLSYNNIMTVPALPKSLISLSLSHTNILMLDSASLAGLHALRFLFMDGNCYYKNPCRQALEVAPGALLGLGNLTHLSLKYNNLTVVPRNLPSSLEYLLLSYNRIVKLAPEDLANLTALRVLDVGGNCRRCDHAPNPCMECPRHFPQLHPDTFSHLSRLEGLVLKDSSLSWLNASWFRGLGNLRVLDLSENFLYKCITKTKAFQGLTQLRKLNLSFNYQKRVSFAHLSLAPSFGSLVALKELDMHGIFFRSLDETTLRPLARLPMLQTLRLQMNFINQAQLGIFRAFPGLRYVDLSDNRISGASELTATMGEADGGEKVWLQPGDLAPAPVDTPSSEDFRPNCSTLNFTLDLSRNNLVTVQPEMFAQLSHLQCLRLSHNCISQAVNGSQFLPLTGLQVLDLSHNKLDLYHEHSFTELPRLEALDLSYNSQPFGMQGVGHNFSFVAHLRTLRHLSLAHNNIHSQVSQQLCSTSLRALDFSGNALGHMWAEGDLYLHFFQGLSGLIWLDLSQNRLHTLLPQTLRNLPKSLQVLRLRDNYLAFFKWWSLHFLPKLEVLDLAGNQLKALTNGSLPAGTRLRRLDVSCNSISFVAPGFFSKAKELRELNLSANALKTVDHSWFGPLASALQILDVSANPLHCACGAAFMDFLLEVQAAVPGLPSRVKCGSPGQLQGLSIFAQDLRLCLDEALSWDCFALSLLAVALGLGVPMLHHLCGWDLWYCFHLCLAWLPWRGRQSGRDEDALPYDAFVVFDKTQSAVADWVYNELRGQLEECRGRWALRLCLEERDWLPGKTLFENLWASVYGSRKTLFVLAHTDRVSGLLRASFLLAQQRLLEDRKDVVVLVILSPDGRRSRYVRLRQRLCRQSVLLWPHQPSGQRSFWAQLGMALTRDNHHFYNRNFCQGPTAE

[5] = Clearance in C57BL6 mouse at 3 mg/kg, po or 1mg/kg, iv administered as cassette dose measured upto 24 hrs by LC/MS/MS analysis; format: ADME, organism-based; details: in vivo
[6] = Oral bioavailability in C57BL/6 mouse at 3 mg/kg administered as cassette dose measured upto 24 hrs by LC/MS/MS analysis; format: ADME, organism-based; details: in vivo
[7] = target: Voltage-gated inwardly rectifying potassium channel KCNH2 (Homo sapiens, UniProt Q12809); assay: Inhibition of human ERG; format: toxicity
Sequence of Voltage-gated inwardly rectifying potassium channel KCNH2 (Q12809 whole entry): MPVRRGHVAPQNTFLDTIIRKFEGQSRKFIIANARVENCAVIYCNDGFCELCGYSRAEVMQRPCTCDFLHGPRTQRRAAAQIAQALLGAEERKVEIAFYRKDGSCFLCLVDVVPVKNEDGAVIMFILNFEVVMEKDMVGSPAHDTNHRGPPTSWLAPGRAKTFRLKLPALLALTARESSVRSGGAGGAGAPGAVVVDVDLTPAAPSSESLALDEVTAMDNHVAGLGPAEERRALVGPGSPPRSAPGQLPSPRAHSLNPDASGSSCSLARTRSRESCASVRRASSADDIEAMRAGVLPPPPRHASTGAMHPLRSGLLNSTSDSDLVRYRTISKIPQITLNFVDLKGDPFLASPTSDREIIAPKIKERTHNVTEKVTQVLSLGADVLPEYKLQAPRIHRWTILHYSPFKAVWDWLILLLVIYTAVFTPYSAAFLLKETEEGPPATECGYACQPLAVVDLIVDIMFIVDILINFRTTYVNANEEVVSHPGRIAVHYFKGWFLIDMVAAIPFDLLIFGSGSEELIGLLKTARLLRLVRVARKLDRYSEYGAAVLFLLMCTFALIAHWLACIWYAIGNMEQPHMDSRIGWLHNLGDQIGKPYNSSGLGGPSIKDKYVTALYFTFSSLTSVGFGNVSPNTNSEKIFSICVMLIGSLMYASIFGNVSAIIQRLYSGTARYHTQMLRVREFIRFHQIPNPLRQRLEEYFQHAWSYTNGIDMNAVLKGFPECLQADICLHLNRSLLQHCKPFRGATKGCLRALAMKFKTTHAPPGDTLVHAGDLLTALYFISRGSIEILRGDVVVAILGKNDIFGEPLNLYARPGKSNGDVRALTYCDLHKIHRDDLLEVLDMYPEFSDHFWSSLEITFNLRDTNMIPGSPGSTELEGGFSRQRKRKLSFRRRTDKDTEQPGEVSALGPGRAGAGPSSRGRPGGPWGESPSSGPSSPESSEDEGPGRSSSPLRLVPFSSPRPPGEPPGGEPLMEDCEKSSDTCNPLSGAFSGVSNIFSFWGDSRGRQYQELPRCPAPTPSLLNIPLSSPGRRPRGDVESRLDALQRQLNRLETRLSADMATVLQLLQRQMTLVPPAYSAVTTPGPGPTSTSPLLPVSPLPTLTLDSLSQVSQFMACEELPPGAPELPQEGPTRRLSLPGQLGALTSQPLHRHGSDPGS

Cytochrome P450 3A4 = Cytochrome P450 3A4 (Homo sapiens, UniProt P08684); assay: Inhibition of CYP3A4 (unknown origin); format: ADME
Sequence of Cytochrome P450 3A4 (P08684 whole entry): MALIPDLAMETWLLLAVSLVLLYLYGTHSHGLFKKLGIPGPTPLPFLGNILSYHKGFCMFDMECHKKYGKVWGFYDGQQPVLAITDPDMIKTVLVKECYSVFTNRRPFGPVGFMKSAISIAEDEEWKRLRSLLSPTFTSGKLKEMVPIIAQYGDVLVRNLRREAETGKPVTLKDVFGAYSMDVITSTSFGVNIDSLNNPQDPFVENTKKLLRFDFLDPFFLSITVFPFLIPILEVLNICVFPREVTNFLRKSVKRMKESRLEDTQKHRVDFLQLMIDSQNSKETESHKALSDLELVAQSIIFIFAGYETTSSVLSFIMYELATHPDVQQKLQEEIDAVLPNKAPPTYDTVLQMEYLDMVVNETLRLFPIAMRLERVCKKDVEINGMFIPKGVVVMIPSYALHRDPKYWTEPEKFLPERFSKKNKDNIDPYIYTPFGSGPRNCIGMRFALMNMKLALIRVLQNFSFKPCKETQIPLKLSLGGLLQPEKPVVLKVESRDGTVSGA

[8] = MRT in C57BL/6 mouse at 3 mg/kg, po or 1 mg/kg, iv administered as cassette dose measured upto 24 hrs by LC/MS/MS analysis; format: ADME, organism-based; details: in vivo
[9] = Volume of distribution at steady state in C57BL/6 mouse at 3 mg/kg, po or 1 mg/kg, iv administered as cassette dose measured upto 24 hrs by LC/MS/MS analysis; format: ADME, organism-based; details: in vivo, read-out: Vdss
[10] = Dose normalized AUC in C57BL/6 mouse at 3 mg/kg, po and 1 mg/kg,iv administered as cassette dose measured upto 24 hrs by LC/MS/MS analysis; format: ADME, organism-based; set-up: dose 3 mg/kg, time <=24; details: in vivo
[11] = Octanol/water partition coefficient, logD of compound at pH 7.4 measured after 4 hrs by shake flask method; format: physicochemical
[12] = Dose normalized Cmax in C57BL/6 mouse at 3 mg/kg, po and 1 mg/kg, iv administered as cassette dose measured upto 24 hrs by LC/MS/MS analysis; format: ADME, organism-based; details: in vivo

SMILES | pKa [1] | IC50 (Toll-like receptor 7) [nM] | IC50 (Toll-like receptor 8 [3]) [nM] | IC50 (Toll-like receptor 8 [4]) [nM] | other results
COc1cc2cc[nH]c2cc1-c1ccncc1 | 5.8 | 1700 | 2 | 3600 | IC50 (Toll-like receptor 4): > 10000 nM; Papp [2]: 33 ×10⁻⁶ cm/s; IC50 (Toll-like receptor 9): > 3600 nM
COc1cc2c(C(=O)N3CCN(C)CC3)n[nH]c2cc1-c1ccnc(C)c1F | 3.7 | > 980 | 14 | 1.2 | 
Cc1cc(-c2cc3[nH]nc(N[C@H]4CCNC[C@@H]4F)c3cc2C2CC2)cc(C)n1 | 6.7 | 9 |  |  | 
COc1cc2c(C(=O)N3CCN(C)CC3)n[nH]c2cc1-c1ccncc1 | 5.3 | 220 |  |  | 
Cc1nccc(-c2cc3[nH]nc(N[C@H]4CCNC[C@@H]4F)c3cc2C2CC2)c1F | 3.9 | 0.1 |  |  | clearance [5]: 28 mL/min/kg; bioavailability [6]: 43%; IC50 [7]: 19000 nM; IC50 (Cytochrome P450 3A4): 4500 nM; MRT [8]: 1.8 h; Vd [9]: 3.1 L/kg; AUC [10]: 635 nM·h/mg/kg; logD at 4 h [11]: 2.5; Cp(f)/dose [12]: 155 nM/mg/kg
COc1cc2cn[nH]c2cc1-c1ccncc1 | 5.4 |  | 51 | > 9300 | Papp [2]: 38 ×10⁻⁶ cm/s
COc1cc2c(C(=O)N3CCN(C)CC3)n[nH]c2cc1-c1cc(C)nc(C)c1 | 6.7 |  | 23 | 2.5 | 

Now from value to molecule, other results behind:

pKa [1] | IC50 (Toll-like receptor 7) [nM] | IC50 (Toll-like receptor 8 [3]) [nM] | IC50 (Toll-like receptor 8 [4]) [nM] | SMILES | other results
4 |  |  |  | COc1cc2c(NC3CCN(C)CC3)n[nH]c2cc1-c1ccnc(C)c1F | 
3.4 | 11 |  |  | COc1cc(-c2cc3[nH]nc(NC4CCN(C)CC4)c3cc2OC)ccn1 | 
3.9 | 0.39 | 3.6 | 0.08 | Cc1nccc(-c2cc3[nH]nc(NC4CCN(C)CC4)c3cc2C2CC2)c1F | clearance [5]: 49 mL/min/kg; bioavailability [6]: 53%; IC50 [7]: 11000 nM; IC50 (Cytochrome P450 3A4): > 25000 nM; MRT [8]: 1.5 h; Vd [9]: 4.4 L/kg; AUC [10]: 485 nM·h/mg/kg; logD at 4 h [11]: 2.5; Cmax/dose [12]: 113 nM/mg/kg
6.7 |  |  |  | COc1cc2c(NC3CCN(C)CC3)n[nH]c2cc1-c1cc(C)nc(C)c1 | 
3.9 | 1 |  |  | Cc1cc2c(NC3CCN(C)CC3)n[nH]c2cc1-c1ccnc(C)c1F | 
5.2 | 3 |  |  | COc1cc2c(NC3CCN(C)CC3)n[nH]c2cc1-c1ccncc1 | 
